Source: publication PMC7663772, “Optimizing the Profile of [^99mTc]Tc–NT(7–13) Tracers in Pancreatic Cancer Models by Means of Protease Inhibitors” (International Journal of Molecular Sciences, 2020)

How the values were obtained:
[1] = system: AsPC-1 xenografts; details: mouse, in vivo; cited from earlier work
[2] = system: AsPC-1 cells; assay: NTS1R-specific cell uptake/internalization in AsPC-1 cells; format: cell-based, human; details: for specific cell uptake: AsPC-1 cells, 1 h incubation at 37 °C, NTS1R-specific (non-specific with 1 μM NT subtracted)
Description: (§1) The human pancreatic adenocarcinoma AsPC-1, PANC-1, MiaCapa-2, and Capan-1 cell lines were obtained from LGC Standards GmbH (Wesel, Germany). All culture reagents were purchased from Gibco BRL, Life Technologies (Grand Island, NY, USA) or from Biochrom KG Seromed (Berlin, Germany). Cells were grown in Roswell Park Memorial Institute-1640 Medium (RPMI-1640; AsPC-1 cells) or Dulbecco’s Modified Eagle’s Medium (DMEM; PANC-1, MiaCapa-2, and Capan-1 cells) with GlutaMAX-I, supplemented with 10% (v/v) fetal bovine serum (FBS), 100 U/mL penicillin, and 100 μg/mL streptomycin, and kept in a controlled humidified air containing 5% CO2 at 37 °C. Splitting of cells with a ratio of 1:3 to 1:5 was performed when approaching confluency, using a trypsin/EDTA (0.05%/0.02% w/v) solution.
For internalization assays, AsPC-1, PANC-1, MiaCapa-2, and Capan-1 cells were seeded in six-well plates (≈1 × 10^6 cells per well) the day before the experiment. Cells were rinsed twice with ice-cold internalization medium (IM; culture medium supplemented by 1% (v/v) FBS), and then fresh IM was added (1.2 mL) at 37 °C, followed by test radiopeptide (250 fmol total peptide in 150 μL IPBS (0.5% w/v BSA–PBS,) 100,000–200,000 cpm). Non-specific internalization was determined by a parallel triplicate series containing 1 μM NT. After incubation at 37 °C, the plates were placed on ice, the medium was collected, and the plates were washed with IPBS (1 mL). Membrane-bound fractions were collected by incubating the cells 2 × 5 min in acid-wash solution (2 × 600 µL; 50 mM glycine buffer pH 2.8, 0.1 M NaCl) at room temperature. […] Sample radioactivity was measured on the gamma counter, and the percentage of specific internalized and membrane-bound fractions were calculated with Microsoft Excel (after subtracting the non-specific from the overall internalized and membrane-bound counts). Results represent the specific mean internalized ± SD of total added radioactivity per well from three experiments performed in triplicate. […]

[3] = system: PANC-1 cells; assay: NTS1R-specific cell uptake/internalization in PANC-1 cells; format: cell-based, human
Description: as §1, with “Splitting of cells with a ratio of 1:3 to 1:5 was performed when approaching confluency, using a trypsin/EDTA (0.05%/0.02% w/v) solution.” left out
(§2) For internalization assays, AsPC-1, PANC-1, MiaCapa-2, and Capan-1 cells were seeded in six-well plates (≈1 × 10^6 cells per well) the day before the experiment. […] Non-specific internalization was determined by a parallel triplicate series containing 1 μM NT. […] Sample radioactivity was measured on the gamma counter, and the percentage of specific internalized and membrane-bound fractions were calculated with Microsoft Excel (after subtracting the non-specific from the overall internalized and membrane-bound counts). Results represent the specific mean internalized ± SD of total added radioactivity per well from three experiments performed in triplicate. […]

[4] = system: MiaCapa-2 cells; assay: NTS1R-specific cell uptake/internalization in MiaCapa-2 cells; format: cell-based, human; details: 1 h incubation at 37 °C
Description: as §1, with “Splitting of cells with a ratio of 1:3 to 1:5 was performed when approaching confluency, using a trypsin/EDTA (0.05%/0.02% w/v) solution.” left out
as §2

[5] = system: Capan-1 cells; assay: NTS1R-specific cell uptake/internalization in Capan-1 cells; format: cell-based, human; details: 1 h incubation at 37 °C
Description: as §1, with “Splitting of cells with a ratio of 1:3 to 1:5 was performed when approaching confluency, using a trypsin/EDTA (0.05%/0.02% w/v) solution.” left out
as §2

[6] = system: WiDr cells; design: method as in PMID 32526874; details: 1 h incubation ref 39; cited from earlier work
[7] = system: NTS1R; design: method as in PMID 17594090; details: read-out: receptor affinity (IC50); cited from earlier work
[8] = system: NTS1R; design: method as in PMID 21883013; details: small number of patients ref 30; cited from earlier work
[9] = mouse, 2 h; cited from earlier work
[10] = mouse, in vivo; cited from earlier work

Ac–Lys(1,4,7,10-tetraazacyclododecane–1,4,7,10-tetraacetic acid)–Pro–Me–Arg–Arg–Pro–Tyr–Tle–Leu–OH [[^68Ga]Ga–DOTA–NT–20.3]
kidney values [1]: about the same values

[^68Ga]Ga–NODAGA–Lys(Cy5**)–AEEAc–[Me–Arg^8,Tle^12]NT(7−13)
kidney values [1]: 20 % IA/g

[^99mTc]Tc–[N4–Gly^7]NT(7–13) [[^99mTc]Tc–DT1]
I, internalized fraction, specific ([2]; AsPC-1, 1 h incubation, of total-added activity): 14.11±2.28 | specific cell uptake [2]: 15.2% ± 2.6% | I, internalized fraction, specific ([3]; PANC-1, 1 h incubation, of total-added activity): 7.30±2.41 | specific cell uptake ([3]; PANC-1 cells, 1 h incubation at 37 °C, NTS1R-specific): 8.1% ± 2.8% | specific cell uptake [4]: 2.7% ± 0.3% | specific cell uptake [5]: 0.4% ± 0.1% | specific cell binding [6]: 10.1 ± 2.3%

[^99mTc]Tc–[N4–βAla^7,Dab^9,Tle]NT(7–13) [[^99mTc]Tc–DT6]
IC50 [7]: 0.08 ± 0.02 nM | specific cell binding [6]: 1.0 ± 0.4% | NTS1R targeting of tumor lesions in patients [8]: poor NTS1R targeting of tumor lesions | stability in mice plasma, intact [9]: > 90%

[^99mTc]Tc–[N4–βAla^7,Dab^9]NT(7–13) [[^99mTc]Tc–DT5]
specific cell uptake [2]: 8.4% ± 0.8% | renal values in mice [10]: high renal values
